Among the data in PubChem BioAssay (NCI) are TGI values, retold here.

Structures are written as SMILES.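 In this assay, cells in 96-well plates receive the compound at five concentrations for 48 hours. Endpoints are linearly interpolated between the surrounding concentrations. TGI denotes the concentration required for complete inhibition of growth.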 A value given as a limit tells only on which side of the number the result lay.

Some test systems named below: 786-0 renal; PC-3 prostate; SR leukemia; HOP-62 NSCLC; MCF7 breast; OVCAR-4 ovarian; SNB-19 CNS; MOLT-4 leukemia; EKVX NSCLC; OVCAR-8 ovarian.
Common to all, as to assay: NCI anticancer screen, dose series, 48 h

Consider `CCCC(=O)NC1=C(NCC)C(=O)c2ccccc2C1=O`, for which the TGI in the assay with 786-0 renal, in the assay on PC-3 prostate, in the assay on SR leukemia, with HOP-62 NSCLC, with MCF7 breast and with OVCAR-4 ovarian was over 100 µM in each case. Moreover, the TGI in the assay on SNB-19 CNS and with MOLT-4 leukemia was over 100 µM throughout.

For the molecule `CC1(CCC2C=CCC2)CCCNC1=S` (centres undefined), the TGI in the assay with 786-0 renal, in the assay with PC-3 prostate, in the assay on EKVX NSCLC, with SR leukemia, in the assay with HOP-62 NSCLC and with MCF7 breast was over 10 µM throughout. Moreover, the TGI with OVCAR-8 ovarian, in the assay on SNB-19 CNS and in the assay with MOLT-4 leukemia was over 10 µM each time.

Turning to `CNC(=O)N1CN(c2ccccc2)C2(CCN(CCCC(=O)c3ccc(F)cc3)CC2)C1=O`, the TGI with 786-0 renal is 87.1 µM; in the assay on PC-3 prostate, over 100 µM; in the assay with EKVX NSCLC, 52.5 µM; in the assay with SR leukemia it was 69.7 µM; in the assay with HOP-62 NSCLC it was 22.8 µM; in the assay with MCF7 breast, 16 µM. Also, the TGI in the assay on OVCAR-8 ovarian was over 100 µM; with SNB-19 CNS it was over 100 µM; with MOLT-4 leukemia, 33.6 µM.

With `CC1(C)CS(=O)(=O)CC(C)(C)C(=N/N)/C1=N\N`, the TGI with 786-0 renal, in the assay with PC-3 prostate, with EKVX NSCLC, in the assay with SR leukemia, with HOP-62 NSCLC and in the assay on MCF7 breast was over 100 µM throughout. The TGI in the assay on OVCAR-4 ovarian, with OVCAR-8 ovarian and in the assay with SNB-19 CNS was over 100 µM throughout.

Turning to `O=c1oc2ccccc2cc1/C=N/N1C(=S)N(c2ccccc2)C(=Nc2ccccc2)C1=Nc1ccccc1`, the TGI in the assay on 786-0 renal, with PC-3 prostate, in the assay on EKVX NSCLC, with SR leukemia, in the assay on HOP-62 NSCLC and in the assay with MCF7 breast was over 100 µM throughout. In addition, the TGI with OVCAR-8 ovarian, in the assay with SNB-19 CNS and in the assay with MOLT-4 leukemia was over 100 µM throughout.

For the molecule `O=[N+]([O-])/C=C1\COCc2cc3c(cc21)OCO3`, the TGI with 786-0 renal was 44.3 µM; in the assay with PC-3 prostate, 25.6 µM; in the assay on EKVX NSCLC, 74.7 µM; with SR leukemia, 61.4 µM; in the assay with HOP-62 NSCLC, over 100 µM; in the assay with MCF7 breast it was 35.8 µM. Besides, the figures for the TGI with OVCAR-8 ovarian and with MOLT-4 leukemia were 84.4 µM and over 100 µM, respectively.

As to `C/C(=N\Nc1nc2ccccc2s1)c1ncccn1`, the TGI with 786-0 renal was 15.8 µM; in the assay with PC-3 prostate it was 11.1 µM; with EKVX NSCLC it was 4.54 µM; in the assay with SR leukemia, 8.7 µM; with HOP-62 NSCLC, 5.78 µM; in the assay with MCF7 breast, over 100 µM. In addition, the TGI was 0.0505 µM in the assay on OVCAR-8 ovarian, over 100 µM in the assay on SNB-19 CNS and over 53.9 µM in the assay on MOLT-4 leukemia.

Regarding `Fc1ccc2nc3n(c2c1)C(c1c(F)cccc1F)SC3` (centres undefined), the TGI with 786-0 renal was over 100 µM; in the assay on PC-3 prostate, over 100 µM; in the assay with SR leukemia, 76.2 µM; with HOP-62 NSCLC it was over 100 µM; with MCF7 breast, over 100 µM; in the assay with OVCAR-4 ovarian it was over 100 µM. The TGI with OVCAR-8 ovarian, with SNB-19 CNS and with MOLT-4 leukemia was over 100 µM each time.

As for `COc1ccc(NC2Oc3cc4c(cc3C(c3cccc(OC)c3OC)C2C)OCO4)cc1` (centres undefined), the TGI was over 100 µM with 786-0 renal; 51.3 µM in the assay on PC-3 prostate; over 100 µM in the assay on EKVX NSCLC; 12 µM in the assay with SR leukemia; over 100 µM in the assay on HOP-62 NSCLC; over 100 µM with MCF7 breast. For the same molecule, the results for the TGI with OVCAR-8 ovarian, with SNB-19 CNS and in the assay on MOLT-4 leukemia were over 100 µM, over 100 µM and 35.9 µM, respectively.

On to `CC1(C)CC(=O)c2c(nc3ccc4ccccc4c3c2-c2ccc(NC(=O)CCCC(=O)Nc3ccc(-c4c5c(nc6ccc7ccccc7c46)CC(C)(C)CC5=O)cc3)cc2)C1`, for which the TGI with 786-0 renal, in the assay with PC-3 prostate, in the assay on EKVX NSCLC, in the assay on SR leukemia, in the assay with HOP-62 NSCLC and in the assay on MCF7 breast was over 100 µM each time. Moreover, the TGI in the assay with OVCAR-8 ovarian, in the assay with SNB-19 CNS and with MOLT-4 leukemia was over 100 µM each time.

For `O=C(NCc1cccnc1)NCc1cccnc1`, the TGI in the assay on 786-0 renal, in the assay on PC-3 prostate, in the assay with EKVX NSCLC, with SR leukemia, with HOP-62 NSCLC and with MCF7 breast was over 100 µM throughout. Moreover, the TGI in the assay with OVCAR-4 ovarian, with OVCAR-8 ovarian and in the assay with SNB-19 CNS was over 100 µM each time.

Take `COc1c2c(cc3oc(C)cc(=O)c13)OC(=N)C(C(N)=O)C2CC(=O)c1ccc(N)cc1` (centres undefined): the TGI in the assay on 786-0 renal, in the assay on PC-3 prostate, in the assay on EKVX NSCLC, with SR leukemia, in the assay on MCF7 breast and in the assay with OVCAR-4 ovarian was over 100 µM in each case. Also, the TGI in the assay on OVCAR-8 ovarian, in the assay with SNB-19 CNS and in the assay on MOLT-4 leukemia was over 100 µM in each case.

For the molecule `N#C/C(=C\c1ccccc1)C(=O)Nc1nnc(-c2ccccc2)o1`, the TGI with 786-0 renal was over 100 µM; in the assay on PC-3 prostate, over 100 µM; with EKVX NSCLC, over 100 µM; in the assay on SR leukemia, 93.2 µM; with HOP-62 NSCLC, over 100 µM; in the assay on MCF7 breast it was over 100 µM. Also, the TGI in the assay with OVCAR-4 ovarian, in the assay on OVCAR-8 ovarian and with MOLT-4 leukemia was over 100 µM in each case.

Consider `CC1CCCc2c(C#N)c(N)nc(-c3ccc(Cl)cc3)c21` (centres undefined), for which the TGI was 38.2 µM with 786-0 renal; 42.9 µM with PC-3 prostate; over 100 µM in the assay with EKVX NSCLC; 72.8 µM with SR leukemia; 24.8 µM in the assay on HOP-62 NSCLC; 84.5 µM in the assay on MCF7 breast. For the same molecule, the figures for the TGI in the assay on OVCAR-8 ovarian, in the assay with SNB-19 CNS and in the assay on MOLT-4 leukemia were over 100 µM, over 100 µM and 43.2 µM, respectively.
